Measurements taken from patent US11058734B2, “Probiotic strains having cholesterol absorbing capacity, methods and uses thereof” (BIOSEARCH, S.A., priority 2014, dated 2021).

System: HT-29 enterocytes
Test: Fluoresterol absorption by HT-29 enterocytes (flow cytometry)
Type: cell-based
Settings: Homo sapiens, Ezetimibe at maximum effective concentration 300 μM
Experimental: HT-29 enterocytes were obtained from the CIC of the University of Granada (Spain) and cultured in DMEM medium supplemented with a 10% (v/v) of FBS, non-essential amino acids and 2 mM L-glutamine; at 37° C. and 5% (v/v) CO2. Cultures for fluoresterol absorption were grown for 14 days using 96-well plates, incubated for 3-4 h with micelles of fluoresterol and bacterial suspensions at 5·10^8 bacteria/mL, or […] Ezetimibe (MSD-SP Ltd) as positive control. Before fluorocytometric assays, HT-29 cultures were disagreggated by trypsin treatment, the medium and free micelles of fluoresterol removed by centrifugation and enterocytes suspended in PBS buffer.
Micelles of fluoresterol, containing 10 mM sodium taurocholate, 6 mM phosphatidylcholine and 0.2 mM fluoresterol were prepared as described by Sparrow et al. (Sparrow et al., 1999, J Lipid Res 40:1747-57). Fluoresterol absorption by bacteria was analyzed incubating bacterial suspensions (5·10^8 bacteria/mL) with micelles (0.1 mg/mL fluoresterol) in PBS buffer at 37° C. […] Finally, bacteria associated fluorescence was determined in a Tecan Genius microplate reader (485 nm excitation, 535 nm emission filters) or in a Beckton Dickinson FACScalibur flow cytometer. […] Absorbed fluoresterol was quantified based on the data of fluorescence (λex: 488 nm; λem: 530 nm) per cell obtained from 2,000 events in each sample. […]

O=C1[C@H](CC[C@H](O)c2ccc(F)cc2)[C@@H](c2ccc(O)cc2)N1c1ccc(F)cc1 [Ezetimibe] was tested. Which inhibition at 300 µM did it give?
The inhibition at 300 µM was 40%.
